Source: patent publication US20080200491A1, “1,2-Dihydro-Spiro[3H-Indole-3,4'-Piperidine] Compounds, as Modulators of the Mas Receptor Novel” (priority 2005, published 2008)
pEC50, pIC50, pKd: −log10 of the molar value. Entries after “also recorded” stand apart in the source; their conditions may differ.

Experiments:
[1] = biological target: T1, Mas receptor (Homo sapiens, UniProt P04201); experiment: Mas receptor IP3 assay (inverse agonist assay); format: cell-based; design: expressed in transfected cells; details: for pIC50: n = 2
T1 sequence (P04201 1-325): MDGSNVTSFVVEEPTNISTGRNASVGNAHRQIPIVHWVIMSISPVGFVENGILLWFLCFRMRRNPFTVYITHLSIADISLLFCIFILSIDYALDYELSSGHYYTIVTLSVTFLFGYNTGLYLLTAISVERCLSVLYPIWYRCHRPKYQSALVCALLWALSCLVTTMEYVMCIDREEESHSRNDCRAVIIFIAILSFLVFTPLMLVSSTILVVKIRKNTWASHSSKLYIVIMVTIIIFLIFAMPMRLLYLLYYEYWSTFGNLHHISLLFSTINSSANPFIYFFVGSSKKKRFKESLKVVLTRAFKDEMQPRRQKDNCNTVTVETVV
Description: The Mas receptor IP3 assay was performed using a mammalian cell line (HEK293) which was transfected with a plasmid containing the human Mas receptor and selected for stable expression of the receptor. […] To achieve this, Mas receptor expression levels were increased by transiently transfecting the same Mas receptor stable cell line with additional human Mas receptor plasmid DNA following standard procedures. These cells were used in the Mas receptor IP3 assay approximately 24 hours post-transfection.
Cells were split into 96-well plates (50,000 cells/well) and allowed to attach for a period of 6 hours. The growth medium was then replaced with medium supplemented with 4 μCi/mL [3H]myo-inositol (100 μl; Perkin Elmer Life Sciences) and the cells were allowed to incubate for approximately 20 hours. Test compounds were serially diluted in inositol-free media containing 10 mM LiCl. The media in the plates was removed by aspiration, replaced with these test compound solutions and incubated at 37° C. for 1 hour.
Following this incubation, the media was removed by aspiration and replaced with buffer containing 0.1M formic acid. The plates were then frozen overnight at −80° C. to achieve complete cell lysis.
The following day, the assay plates were thawed at room temperature. The thawed contents were then transferred to 96-well filter plates (Nillipore, Multiscreen) pre-loaded with resin (Biorad, AG1-X8 100-200 mesh, formate form). The plate was filtered using a vacuum manifold and the resin was washed multiple times with water. An elution buffer was then applied (200 μl, 0.2M Ammonium formate/0.1M formic acid) and the resulting eluent was collected, under vacuum, in a 96-well collection plate. Aliquots of the eluent (80 μl) were transferred to filter plates (Whatman, Unifilter GF/C) and dried in a 45° C. oven overnight. Dried plates were counted on a scintillation counter following the addition of an appropriate scintillant (Perkin Elmer Life Sciences, Optiphase Supermix or Hi-Safe 3).

[2] = system: isolated rat hearts; experiment: Ischemia-reperfusion assay in isolated adult rat hearts (Langendorff apparatus)
Description: Male Sprague-Dawley rats (300-350 g body weight) were anesthetized with Inactin (100 mg/kg IP) 20 minutes prior to surgery. The chest wall was opened and the heart was rapidly excised and immediately placed into ice-cold Krebs-Henseleit (KH) buffer (118 mM NaCl, 4.7 mM KCl, 1.2 mM MgSO4, 1.2 mM KH2PO4, […], 25 mM NaHCO3, 11 mM glucose, 1 mM pyruvate, and 0.005 mM EDTA) to produce cardiac arrest. The aorta was then cannulated and the heart retrogradely perfused with KH buffer maintained at 37° C. in a reservoir bubbled with 95% O2/5% CO2 (pH7.4) on the Langendorff apparatus at a constant pressure of 70 mmHg. Myocardial temperature was maintained at 37° C. by partially submerging the heart into a water-jacketed chamber filled with KH buffer. A water filled latex balloon attached to a metal cannula and inserted into the left ventricle via the mitral valve and connected to a pressure transducer (Powerlab, ADInstruments, Inc) was used for measurement of left ventricular pressure. The balloon was initially inflated to an end-diastolic pressure of 10 mmHg. After allowing 20 minutes for equilibration, rat hearts were subjected to 10 minutes of KH buffer containing drug or vehicle followed by 30 minutes of ischemia followed by 30 minutes of reperfusion. The difference between peak-systolic and end diastolic pressures, or left ventricular developed pressure (LVDP) was calculated as an index of contractile function and measured just prior to ischemia and at 10, and 30 minutes of reperfusion. Percent recovery of LV function [(LVDP post reperfusion/LVDP pre-ischemia)[…]] was averaged across 5 vehicle and 4 drug treated hearts and one-way anova with Newman-Keuls Multiple Comparison Test was used to determine statistical significance.
Epicardial electrogram recordings were also taken from the isolated rat hearts used in FIGS. 2 and 3. Briefly, silver wire electrodes were placed on the right atrium and the apex of the left ventricle, allowing an epicardial electrogram to be recorded. Premature ventricular contraction (PVC), ventricular tachycardia and ventricular fibrillation were common arrhythmias observed during reperfusion following 30 minutes of global ischemia. Hearts were considered positive for reperfusion arrhythmias if ventricular arrhythmias were sustained for greater than 30 seconds during the first 5 minutes of reperfusion.

[3] = system: blood pressure in rats; experiment: Blood pressure measurement in rats by telemetry; format: in vivo, rat; details: conscious rats, IP injection, FIG. 5
Description: Cardiac parameters were measured by small transmitting devices, (Data Sciences PhysioTel Telemetry devices), implanted in rats. The implanted transmitting devices were used to measure blood pressure in freely moving conscious animals. There are no external connections or tethering devices that can inhibit animal movement and induce unnecessary stress, which can affect the outcome of a study.
This procedure was performed under modified aseptic conditions. Rats were anesthetized with Isoflurane gas that ranged in concentration from 1.5-2.0%. A cardiac telemetry device was implanted into the peritoneal cavity with a pressure sensing catheter situated no more than 2 cm inside the descending aorta. This was accomplished as follows: The rat was shaved and the incision site was prepared with an iodine solution. The rat was then placed on a heating pad to maintain a constant body temp of 38+/−0.5° C., and covered with a sterile drape. A 6 cm midline abdominal incision was made to provide access to the implantation area. […] The rats were monitored for 7 days to ensure proper recovery.
On the test day, injections with either vehicle or with test compound were administered via IP injection in volumes of ˜250 μl. Animals were monitored with a resolution of approximately one measurement/min for 60 minutes before injection of vehicle or compound and for about 120 minutes after injection.

[4] = system: isolated rat aortic rings; experiment: Angiotensin II induced vasoconstriction in isolated rat aortic rings; details: pretreatment 15 min; Angiotensin II 1 uM; same doses also tested against norepinephrine 1 uM; FIG. 6
Description: Sprague-Dawley rats (250-300 g) were euthanized via CO2 chamber. […] The excess adventitial tissue was carefully removed and the endothelium was sloughed off by rinsing with buffer via syringe. The vessel was then cut into 2-3 mm rings and mounted on wire stirrups connected to force transducers (World Precision Instruments, Myobath 4 channel system, FORT-10) to record changes in isometric force. The aortic rings were then placed in 15 mL organ baths filled with buffer at 37° C. with continuous aeration (95% O2 and 5% CO2)
The rings were left to equilibrate in buffer for 30 minutes. A resting tension of 4 g was applied and the rings were allowed to equilibrate for 1 hour. During the equilibration period, the buffer was changed every 30 minutes. After equilibration was complete, the aortic rings were tested for viability and maximal contraction response by addition of 50 mM KCl.
Aortic rings were contracted with AngiotensinII (1 uM) Sigma, St Louis, Mo. and the isometric force recorded. […] The aortic rings were then treated with the agonist, AngiotensinII (1 uM), and the change in isometric force was recorded. […]
Data for each group (Compound S75 concentration) was from n=4 aortic rings. Change in aortic tension after AngiotensinII treatment was expressed as a percentage to 50 mM KCL in order to normalize tension for each aortic ring.

[5] = biological target: Mas receptor; details: Santos et al., PNAS 2003; cited from earlier work
[6] = biological target: T1, Mas receptor; details: Dong et al., Cell 2001; cited from earlier work

Compound CC(C)c1ccc2c(c1)C1(CCN(CCC(F)(F)F)CC1)CN2C(=O)c1c(F)cccc1F [Compound 1, 1′-(3,3,3-trifluoro-propyl)-1,2-dihydro-5-isopropyl-1-(2,6-difluoro-benzoyl)-spiro[3H-indole-3,4′-piperidine]] has a pIC50 [1] of 7.54.
Compound CCCN1CCC2(CC1)CN(C(=O)c1c(F)cccc1F)c1ccc(C(C)(C)C)cc12 [Compound 4, 1′-(propyl)-1,2-dihydro-5-tert-butyl-1-(2,6-difluoro-benzoyl)-spiro[3H-indole-3,4′-piperidine]] has a pIC50 [1] of 7.45.
For C=CCN1CCC2(CC1)CN(C(=O)c1cccc(F)c1F)c1ccc(F)cc12 [Compound S75, 1′-(allyl)-1,2-dihydro-5-fluoro-1-(2,3-difluoro-benzoyl)-spiro[3H-indole-3,4′-piperidine]], the “left ventricle function after reperfusion compared to vehicle treatment” value ([2]; 30 μM, 30 min ischemia, 30 min reperfusion, FIG. 2) was “significant increase in left ventricle function”, the “level of left ventricle function after reperfusion versus level before ischemia” value ([2]; 30 μM, FIG. 2) was “comparable to the level before ischemia” and the “ischemic contracture: end diastolic pressure (EDP) compared to vehicle treatment” value ([2]; 30 μM, FIG. 3) was “significant decrease in end diastolic pressure”. For the same compound, the early reperfusion arrhythmias ([2]; ventricular arrhythmias sustained > 30 seconds during first 5 minutes of reperfusion, FIG. 4) was “none of the four hearts”, the “change in blood pressure after treatment” value [3] was “does not raise blood pressure; also recorded: did not result in a significant change in blood pressure” and the “inhibition of angiotensin II induced vasoconstriction” value [4] was “potent and selective inhibition”. The “mode of action at the Mas receptor” value ([1]; FIG. 1) was “inverse agonist”.
For “DRVYIHP [Ang (1-7), H-Asp-Arg-Val-Tyr-Ile-His-Pro-OH]”, the pKd [5] is listed as 9.48.
For “a peptide called NPFF, reported to bind the Mas receptor weakly and NPFF1/NPFF2 with high affinity”, the pEC50 [6] is given as roughly 6.40.
In the case of “angiotensin II: known vasoconstrictor peptide, control compound in the blood pressure study (DRVYIHPF; Angiotensin-2; UniProt P01019 25-32, looked up) [reference compound]”, the “change in blood pressure after treatment” value [3] was “significant increase in blood pressure”.
